Data reported in ChEMBL document CHEMBL1147909, “Methylenedisalicylic acid derivatives: new PTP1B inhibitors that confer resistance to diet-induced obesity” (Bioorg Med Chem Lett, 2007).

Columns and labels:
[1] = target: T1, Tyrosine-protein phosphatase non-receptor type 1 (Homo sapiens, UniProt P18031); assay: Inhibition of PTP1B after 10 mins
T1 sequence (P18031 whole entry): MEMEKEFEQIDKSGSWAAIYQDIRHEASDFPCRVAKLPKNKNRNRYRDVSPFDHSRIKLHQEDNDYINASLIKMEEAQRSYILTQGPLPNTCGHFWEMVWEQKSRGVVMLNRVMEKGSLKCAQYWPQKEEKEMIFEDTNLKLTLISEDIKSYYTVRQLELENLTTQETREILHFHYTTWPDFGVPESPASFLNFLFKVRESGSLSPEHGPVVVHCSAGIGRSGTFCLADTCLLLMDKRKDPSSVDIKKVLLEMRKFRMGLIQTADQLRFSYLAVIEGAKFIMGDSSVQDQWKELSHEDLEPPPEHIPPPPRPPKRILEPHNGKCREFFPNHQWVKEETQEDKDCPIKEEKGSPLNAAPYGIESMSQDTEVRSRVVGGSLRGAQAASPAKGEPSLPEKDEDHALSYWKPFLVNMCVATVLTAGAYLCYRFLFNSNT

Mus musculus [2] = assay: Effect on high fat diet induced obesity in C57BL/6J Jms Slc mouse assessed as liver weight at 5 g/kg; format: functional
Mus musculus [3] = assay: Effect on high fat diet induced obesity in C57BL/6J Jms Slc mouse assessed as body weight at 5 g/kg; format: functional
[4] = Inhibition of LAR Tyrosine phosphatase D1; set-up: species or system Homo sapiens
[5] = target: T2, Tyrosine-protein phosphatase non-receptor type 2 (Homo sapiens, UniProt P17706); assay: Inhibition of TC-PTP
T2 sequence (P17706 whole entry): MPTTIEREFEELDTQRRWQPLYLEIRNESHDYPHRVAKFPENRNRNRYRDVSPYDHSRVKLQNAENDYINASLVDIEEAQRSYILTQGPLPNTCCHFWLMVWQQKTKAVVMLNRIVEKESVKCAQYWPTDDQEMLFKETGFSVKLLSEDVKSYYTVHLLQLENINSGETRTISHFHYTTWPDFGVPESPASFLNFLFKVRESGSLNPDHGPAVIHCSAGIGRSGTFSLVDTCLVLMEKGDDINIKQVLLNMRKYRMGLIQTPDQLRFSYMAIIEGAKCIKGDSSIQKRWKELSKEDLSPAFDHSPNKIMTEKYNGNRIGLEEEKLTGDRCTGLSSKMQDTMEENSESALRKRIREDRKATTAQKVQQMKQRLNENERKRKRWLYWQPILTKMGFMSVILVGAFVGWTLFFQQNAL

Mus musculus [6] = assay: Effect on high fat diet induced obesity in C57BL/6J Jms Slc mouse assessed as epididymal adipose tissue weight at 5 g/kg; format: functional
Mus musculus [7] = assay: Effect on high fat diet induced obesity in C57BL/6J Jms Slc mouse assessed as retroperitoneal adipose tissue weight at 5 g/kg; format: functional
[8] = target: Tyrosine-protein phosphatase non-receptor type 6 (Homo sapiens, UniProt P29350); assay: Inhibition of SHP-1 catalytic domain
Chain of Tyrosine-protein phosphatase non-receptor type 6 (P29350 whole entry, the tested form may be a part): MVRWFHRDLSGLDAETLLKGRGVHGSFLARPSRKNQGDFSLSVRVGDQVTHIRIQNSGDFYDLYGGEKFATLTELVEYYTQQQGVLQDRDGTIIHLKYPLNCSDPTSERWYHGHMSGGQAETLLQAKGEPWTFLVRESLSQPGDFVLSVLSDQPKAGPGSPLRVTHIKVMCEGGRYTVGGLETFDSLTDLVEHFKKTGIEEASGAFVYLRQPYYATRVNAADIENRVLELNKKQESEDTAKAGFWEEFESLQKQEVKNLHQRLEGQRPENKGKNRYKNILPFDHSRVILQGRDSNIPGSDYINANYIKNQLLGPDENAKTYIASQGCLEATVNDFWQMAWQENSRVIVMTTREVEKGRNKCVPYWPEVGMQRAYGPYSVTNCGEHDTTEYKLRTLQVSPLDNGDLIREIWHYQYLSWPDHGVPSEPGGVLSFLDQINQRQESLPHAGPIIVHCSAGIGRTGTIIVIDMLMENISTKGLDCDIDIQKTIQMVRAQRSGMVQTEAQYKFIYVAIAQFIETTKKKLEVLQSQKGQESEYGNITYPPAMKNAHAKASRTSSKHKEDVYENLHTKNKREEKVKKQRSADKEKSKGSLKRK

[9] = target: T3, Tyrosine-protein phosphatase 1 (Saccharomyces cerevisiae S288c, UniProt P25044); assay: Inhibition of yeast PTP1
T3 sequence (P25044 whole entry): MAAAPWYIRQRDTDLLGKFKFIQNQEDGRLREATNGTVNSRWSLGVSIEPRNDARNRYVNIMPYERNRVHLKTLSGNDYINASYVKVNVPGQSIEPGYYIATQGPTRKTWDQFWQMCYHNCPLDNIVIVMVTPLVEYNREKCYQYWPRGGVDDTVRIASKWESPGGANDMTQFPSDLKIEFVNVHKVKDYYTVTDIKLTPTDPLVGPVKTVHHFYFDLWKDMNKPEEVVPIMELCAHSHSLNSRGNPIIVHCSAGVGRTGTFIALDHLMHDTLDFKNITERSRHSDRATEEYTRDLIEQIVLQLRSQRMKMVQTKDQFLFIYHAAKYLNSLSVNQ

Homo sapiens = organism: Homo sapiens; assay: Selectivity for PTP1B over TC-PTP

## O=C(O)c1cc(Cc2cc(Cl)c(O)c(C(=O)O)c2)cc(Cl)c1O
[1]
  IC50: 242 µM

## O=C(O)c1cc(Cc2cc(C(=O)O)c(O)c(-c3ccccc3)c2)cc(-c2ccccc2)c1O
Mus musculus [2]
  Activity: 1.03 g
Mus musculus [3]
  Activity: 29.2 g
[4]
  IC50: > 2000 µM
[5]
  IC50: 291 µM
  Ki: 64 µM
Mus musculus [6]
  Activity: 0.86 g
Mus musculus [7]
  Activity: 0.26 g
[8]
  IC50: 51 µM
  Ki: 17 µM
[9]
  IC50: 234 µM
Homo sapiens
  Selectivity ratio: > 10
[1]
  IC50: 20 µM
  Ki: 9.4 µM

## COc1cc(Cc2cc(OC)c(O)c(C(=O)O)c2)cc(C(=O)O)c1O
[1]
  IC50: > 1000 µM

## Cc1cc(Cc2cc(C)c(O)c(C(=O)O)c2)cc(C(=O)O)c1O
[1]
  IC50: > 1000 µM

## O=C(O)c1cc(Cc2cc(C(=O)O)c(O)c(-c3ccco3)c2)cc(-c2ccco2)c1O
[1]
  IC50: 39 µM

## O=C(O)c1cc(Cc2cc(Br)c(O)c(C(=O)O)c2)cc(Br)c1O
[1]
  IC50: 78 µM

## O=C(O)c1cc(Cc2cc(Cc3ccccc3)c(O)c(C(=O)O)c2)cc(Cc2ccccc2)c1O
[4]
  IC50: > 2000 µM
[5]
  IC50: 146 µM
  Ki: 25 µM
[8]
  IC50: 32 µM
  Ki: 14 µM
[9]
  IC50: 103 µM
Homo sapiens
  Selectivity ratio: > 10
[1]
  IC50: 15 µM
  Ki: 6.3 µM

## O=C(O)C(=O)Nc1sc2c(c1C(=O)O)CCNC2
[1]
  IC50: 500 µM
  Ki: 11.5 µM
